Data on 4 molecules can be found in ChEMBL document CHEMBL4251695, “Data Sets Representative of the Structures and Experimental Properties of FDA-Approved Drugs” (ACS Med Chem Lett, 2018).

Holding throughout (type): ADME, organism-based
What all share (settings): in vivo

Data set [1] is filed under the species Homo sapiens. The data set can be described thus: Half life in human.
Data set [2] is described as follows: Clearance in human.
Data set [3] is described as follows: Cmax in human.

In turn, `COc1cc2c(cc1OC)[C@@H](Cc1cc(OC)c(OC)c(OC)c1)[N+](C)(CCCOC(=O)CC/C=C/CCC(=O)OCCC[N+]1(C)CCc3cc(OC)c(OC)cc3[C@H]1Cc1cc(OC)c(OC)c(OC)c1)CC2` (some centres undefined) showed a t1/2 in data set [1] of 2 min.
The molecule `CCCCC[C@H](O)/C=C/[C@H]1[C@H](O)CC(=O)[C@@H]1CCCCCCC(=O)O` [ALPROSTADIL] had a clearance in data set [2] of 115000 mL/min.
In data set [3], `CC(C)C[C@H]1C(=O)N2CCC[C@H]2[C@]2(O)O[C@](NC(=O)[C@@H]3C=C4c5cccc6[nH]c(Br)c(c56)C[C@H]4N(C)C3)(C(C)C)C(=O)N12` [BROMOCRIPTINE] registered a Cmax of 0.711 nM.
Molecule `Nc1ccn([C@@H]2O[C@H](CO)[C@@H](O)[C@@H]2O)c(=O)n1` [CYTARABINE] gave a clearance in data set [2] of 0.233 mL/min.

For orientation: clearance means a measure of how efficiently the substance is removed, as volume per time. Read a low clearance as inefficient removal. A word on the Cmax: it is the peak of the concentration-time curve.
